Assay results from patent publication US12709610B2, “Preparation method for hepatitis B virus nucleocapsid inhibitor” (Shanghai Zhimeng Biopharma, Inc., priority 2021, dated 2026).

Assay: Ames assay (genotoxicity)
Type: cell-based
Conditions: synthetic intermediates of the last three steps

SMILES | Ames assay result
NC(=O)Nc1ccc(CCN2C(=O)CO[C@@H]2c2cn(-c3ccc(Br)cc3)nc2-c2ccc(F)cc2)cc1 [Compound 17] | negative
NC(=O)Nc1ccc(CCN2C(=O)CO[C@@H]2c2cn(-c3ccc(Br)cc3)nc2-c2ccc(F)cc2)cc1I [Compound 9] | negative
